The source made the active and inactive calls.
What was measured:
[1] = DRD fibroblast viability loss – cell-based, non-viral oncogenic, luminescence, dose response (AID 1934); assay type: functional; settings: Homo sapiens
INS1 = assay: INS-1E survival protection against cytokine death – cell-based, luminescence, retest, dose response (AID 449756); assay type: functional; settings: Rattus norvegicus;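 further: cell death triggered by IL-1 beta plus TNF-alpha plus IFN-gamma mixture; protective hits raise ATP signal compared with cytokine alone wells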
BJ [2] = assay: BJ-TERT fibroblast viability loss – cell-based, RAS-independent, luminescence, dose response (AID 1933); assay type: functional; settings: Homo sapiens
[3] = Luminescence Cell-Based Dose Confirmation HTS to Identify Inhibitors of Platelet Dense Granule Release. [Related pubchem assays: 1663 (Primary HTS), 1678 (Summary of Project)]; assay type: functional
[4] = target: Luciferin 4-monooxygenase (Photinus pyralis, UniProt P08659); assay: inhibition of purified Photinus pyralis luciferase – biochemical, luminescence, dose response (AID 1891)
BJ [5] = assay: BJ-TERT-LT-ST fibroblast viability loss – cell-based, RAS-independent, luminescence, dose response (AID 1935); assay type: functional; settings: Homo sapiens;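 further: BJ fibroblasts immortalized with TERT plus LT and ST oncogenes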
BJ [6] = assay: cells; assay type: functional, cell-based; settings: Homo sapiens
[7] = target: Heat shock protein HSP 90-alpha (Homo sapiens, UniProt P07900); assay type: functional, organism-based
Fatty acid synthase [8] = target: T1, Fatty acid synthase (Homo sapiens, UniProt P49327); assay: inhibition of human FAS-TE enzyme activity – biochemical, endpoint fluorescence intensity, uHTS hits, dose response (AID 624327); assay type: functional;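 further: fluorescence from hydrolysis of an O-methyl fluorescein acyl ester substrate by the enzyme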
Fatty acid synthase [9] = target: T1, Fatty acid synthase; assay: inhibition of human FAS-TE enzyme activity – biochemical, kinetic fluorescence intensity, dose response (AID 624326); assay type: functional;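 further: rate of fluorescence rise from hydrolysis of a fluorogenic O-methyl fluorescein ester substrate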
[10] = target: T2, RNA-binding protein pos-1 (Caenorhabditis elegans, UniProt G5EF15); assay: disruptors of C. elegans POS-1 RNA interaction – biochemical, fluorescence polarization, dose response (AID 1964);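 further: purified POS-1 fused to maltose binding protein made in E. coli; potency of compounds blocking POS-1 binding to fluorescent RNA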
T2 sequence (G5EF15 whole entry): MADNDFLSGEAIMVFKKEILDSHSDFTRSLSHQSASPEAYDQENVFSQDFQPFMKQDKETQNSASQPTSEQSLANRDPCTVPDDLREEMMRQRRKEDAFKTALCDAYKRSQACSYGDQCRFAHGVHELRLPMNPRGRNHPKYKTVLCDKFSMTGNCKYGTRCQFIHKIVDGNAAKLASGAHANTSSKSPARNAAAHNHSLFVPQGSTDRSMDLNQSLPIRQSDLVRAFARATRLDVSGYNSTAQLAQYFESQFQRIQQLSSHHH

[11] = target: T3, Zinc finger protein mex-5 (Caenorhabditis elegans, UniProt Q9XUB2); assay: potency of MEX-5 RNA-binding blockers – biochemical, C. elegans, fluorescence polarization, dose response (AID 1960)
T3 sequence (Q9XUB2 whole entry): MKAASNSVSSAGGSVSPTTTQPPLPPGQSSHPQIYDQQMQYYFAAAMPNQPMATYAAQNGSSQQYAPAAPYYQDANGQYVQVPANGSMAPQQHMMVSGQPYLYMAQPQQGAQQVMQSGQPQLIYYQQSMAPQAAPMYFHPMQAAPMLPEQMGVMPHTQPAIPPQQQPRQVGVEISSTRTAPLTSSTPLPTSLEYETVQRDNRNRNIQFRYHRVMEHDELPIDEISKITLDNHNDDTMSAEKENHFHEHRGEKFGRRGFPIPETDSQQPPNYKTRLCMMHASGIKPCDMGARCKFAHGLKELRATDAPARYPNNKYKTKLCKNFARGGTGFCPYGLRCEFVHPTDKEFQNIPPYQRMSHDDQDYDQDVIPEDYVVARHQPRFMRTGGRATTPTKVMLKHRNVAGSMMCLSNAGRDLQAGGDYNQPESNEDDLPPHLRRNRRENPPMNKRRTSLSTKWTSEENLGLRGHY

[12] = target: T4, Rac GTPase-activating protein 1 (Homo sapiens, UniProt Q9H0H5); assay: blockers of MgcRacGAP-driven Rac1 GTP hydrolysis – biochemical, ADP Hunter fluorescence, primary and confirmatory, confirmation (AID 624330); assay type: functional
T4 sequence (Q9H0H5 whole entry): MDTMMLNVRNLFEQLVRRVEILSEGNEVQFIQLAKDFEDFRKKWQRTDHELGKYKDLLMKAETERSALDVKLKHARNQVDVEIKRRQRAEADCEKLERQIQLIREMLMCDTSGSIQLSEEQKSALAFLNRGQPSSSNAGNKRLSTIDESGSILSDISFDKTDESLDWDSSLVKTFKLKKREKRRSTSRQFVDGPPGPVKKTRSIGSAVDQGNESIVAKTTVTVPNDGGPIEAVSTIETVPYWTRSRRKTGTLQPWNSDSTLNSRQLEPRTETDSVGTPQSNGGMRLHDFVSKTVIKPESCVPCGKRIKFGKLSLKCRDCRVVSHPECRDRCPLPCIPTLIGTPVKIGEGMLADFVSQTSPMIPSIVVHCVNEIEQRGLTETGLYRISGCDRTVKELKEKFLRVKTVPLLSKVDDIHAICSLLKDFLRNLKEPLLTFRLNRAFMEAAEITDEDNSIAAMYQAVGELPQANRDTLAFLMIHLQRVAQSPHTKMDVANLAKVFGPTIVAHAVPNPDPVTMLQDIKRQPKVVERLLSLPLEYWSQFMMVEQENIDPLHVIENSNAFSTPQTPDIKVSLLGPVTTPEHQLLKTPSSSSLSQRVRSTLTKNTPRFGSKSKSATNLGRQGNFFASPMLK

[13] = target: T5, Heat shock factor protein 1 (Mus musculus, UniProt P38532); assay: decrease of HSF1-responsive luciferase luminescence – cell-based, NIH3T3, dose retest, confirmation (AID 2382); assay type: functional;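 further: NIH3T3 fibroblasts with HSF1-driven luciferase reporter stressed by proteasome inhibitor MG132; luminescence from HSF1-driven luciferase expression after 8 hours of MG132 stress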
T5 sequence (P38532 whole entry): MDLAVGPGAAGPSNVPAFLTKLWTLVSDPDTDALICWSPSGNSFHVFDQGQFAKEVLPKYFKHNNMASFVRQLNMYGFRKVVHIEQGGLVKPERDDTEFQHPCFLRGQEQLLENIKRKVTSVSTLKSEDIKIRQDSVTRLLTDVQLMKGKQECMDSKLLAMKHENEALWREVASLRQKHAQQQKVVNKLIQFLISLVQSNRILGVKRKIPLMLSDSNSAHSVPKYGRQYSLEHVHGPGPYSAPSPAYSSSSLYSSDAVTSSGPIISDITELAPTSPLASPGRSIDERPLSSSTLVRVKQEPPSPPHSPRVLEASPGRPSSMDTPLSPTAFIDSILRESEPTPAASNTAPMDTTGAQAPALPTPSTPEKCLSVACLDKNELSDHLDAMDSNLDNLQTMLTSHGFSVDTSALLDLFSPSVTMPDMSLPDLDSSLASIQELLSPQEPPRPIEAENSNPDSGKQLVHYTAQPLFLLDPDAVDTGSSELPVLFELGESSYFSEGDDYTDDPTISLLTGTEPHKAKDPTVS

[14] = non-specific 3'UTR reporter inhibition in Clone20-Shn3RL – cell-based, Renilla luciferase, cherry-picked, counter-screen for Shn3 inhibitor project, dose response (AID 624133); assay type: functional
[15] = reduction of Shn3 3'UTR-driven luciferase in osteoblasts – cell-based, Clone20 osteoblasts, firefly luciferase, cherry-picked, dose response (AID 624132); assay type: functional;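 further: firefly luciferase luminescence from reporter carrying the Shn3 3'UTR in osteoblasts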
[16] = target: T6, Calpain-2 catalytic subunit (Sus scrofa, UniProt P43367); assay: m-calpain protease blockers, concentration series – biochemical, fluorogenic peptide substrate, dose response (AID 1420); assay type: functional
T6 sequence (P43367 whole entry): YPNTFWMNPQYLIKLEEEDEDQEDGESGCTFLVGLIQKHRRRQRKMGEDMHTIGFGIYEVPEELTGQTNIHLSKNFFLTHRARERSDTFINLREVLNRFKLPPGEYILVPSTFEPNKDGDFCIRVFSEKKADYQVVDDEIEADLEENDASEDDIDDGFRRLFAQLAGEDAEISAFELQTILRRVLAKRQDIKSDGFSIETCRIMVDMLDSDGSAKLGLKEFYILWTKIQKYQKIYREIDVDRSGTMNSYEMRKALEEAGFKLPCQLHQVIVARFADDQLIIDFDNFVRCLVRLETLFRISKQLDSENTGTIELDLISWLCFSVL

H9c2 = assay: cells; assay type: functional, cell-based; settings: Rattus norvegicus, H9c2, Myocardium;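 further: confirmatory concentration-response retest of ultra-high-throughput screening hits for modulation of myocardial damage; cell death induced by hydrogen peroxide oxidative stress; compound pretreatment for 60 min then peroxide exposure for 2 h; potency is for protecting the cells against peroxide damage rather than for killing them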
[17] = target: T5, Heat shock factor protein 1; assay: enhancement of HSF1-driven luciferase signal – cell-based, NIH3T3, luminescence, dose retest, confirmation (AID 435004); assay type: functional;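 further: stress induced by proteasome inhibitor MG132 added 30 min after compound; luciferase reporter driven by HSF1 response element in NIH3T3 cells; actives raise luminescence as potentiators of the MG132 stress response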
[18] = target: FAD-linked sulfhydryl oxidase ALR (Homo sapiens, UniProt P55789); assay: ALR-catalysed DTT oxidation blockers – biochemical, H2O2 detection, luminescence, cherry-pick, dose response (AID 493248)
SN12K1 = assay: cells; assay type: functional; settings: Homo sapiens

T1 sequence (P49327 whole entry): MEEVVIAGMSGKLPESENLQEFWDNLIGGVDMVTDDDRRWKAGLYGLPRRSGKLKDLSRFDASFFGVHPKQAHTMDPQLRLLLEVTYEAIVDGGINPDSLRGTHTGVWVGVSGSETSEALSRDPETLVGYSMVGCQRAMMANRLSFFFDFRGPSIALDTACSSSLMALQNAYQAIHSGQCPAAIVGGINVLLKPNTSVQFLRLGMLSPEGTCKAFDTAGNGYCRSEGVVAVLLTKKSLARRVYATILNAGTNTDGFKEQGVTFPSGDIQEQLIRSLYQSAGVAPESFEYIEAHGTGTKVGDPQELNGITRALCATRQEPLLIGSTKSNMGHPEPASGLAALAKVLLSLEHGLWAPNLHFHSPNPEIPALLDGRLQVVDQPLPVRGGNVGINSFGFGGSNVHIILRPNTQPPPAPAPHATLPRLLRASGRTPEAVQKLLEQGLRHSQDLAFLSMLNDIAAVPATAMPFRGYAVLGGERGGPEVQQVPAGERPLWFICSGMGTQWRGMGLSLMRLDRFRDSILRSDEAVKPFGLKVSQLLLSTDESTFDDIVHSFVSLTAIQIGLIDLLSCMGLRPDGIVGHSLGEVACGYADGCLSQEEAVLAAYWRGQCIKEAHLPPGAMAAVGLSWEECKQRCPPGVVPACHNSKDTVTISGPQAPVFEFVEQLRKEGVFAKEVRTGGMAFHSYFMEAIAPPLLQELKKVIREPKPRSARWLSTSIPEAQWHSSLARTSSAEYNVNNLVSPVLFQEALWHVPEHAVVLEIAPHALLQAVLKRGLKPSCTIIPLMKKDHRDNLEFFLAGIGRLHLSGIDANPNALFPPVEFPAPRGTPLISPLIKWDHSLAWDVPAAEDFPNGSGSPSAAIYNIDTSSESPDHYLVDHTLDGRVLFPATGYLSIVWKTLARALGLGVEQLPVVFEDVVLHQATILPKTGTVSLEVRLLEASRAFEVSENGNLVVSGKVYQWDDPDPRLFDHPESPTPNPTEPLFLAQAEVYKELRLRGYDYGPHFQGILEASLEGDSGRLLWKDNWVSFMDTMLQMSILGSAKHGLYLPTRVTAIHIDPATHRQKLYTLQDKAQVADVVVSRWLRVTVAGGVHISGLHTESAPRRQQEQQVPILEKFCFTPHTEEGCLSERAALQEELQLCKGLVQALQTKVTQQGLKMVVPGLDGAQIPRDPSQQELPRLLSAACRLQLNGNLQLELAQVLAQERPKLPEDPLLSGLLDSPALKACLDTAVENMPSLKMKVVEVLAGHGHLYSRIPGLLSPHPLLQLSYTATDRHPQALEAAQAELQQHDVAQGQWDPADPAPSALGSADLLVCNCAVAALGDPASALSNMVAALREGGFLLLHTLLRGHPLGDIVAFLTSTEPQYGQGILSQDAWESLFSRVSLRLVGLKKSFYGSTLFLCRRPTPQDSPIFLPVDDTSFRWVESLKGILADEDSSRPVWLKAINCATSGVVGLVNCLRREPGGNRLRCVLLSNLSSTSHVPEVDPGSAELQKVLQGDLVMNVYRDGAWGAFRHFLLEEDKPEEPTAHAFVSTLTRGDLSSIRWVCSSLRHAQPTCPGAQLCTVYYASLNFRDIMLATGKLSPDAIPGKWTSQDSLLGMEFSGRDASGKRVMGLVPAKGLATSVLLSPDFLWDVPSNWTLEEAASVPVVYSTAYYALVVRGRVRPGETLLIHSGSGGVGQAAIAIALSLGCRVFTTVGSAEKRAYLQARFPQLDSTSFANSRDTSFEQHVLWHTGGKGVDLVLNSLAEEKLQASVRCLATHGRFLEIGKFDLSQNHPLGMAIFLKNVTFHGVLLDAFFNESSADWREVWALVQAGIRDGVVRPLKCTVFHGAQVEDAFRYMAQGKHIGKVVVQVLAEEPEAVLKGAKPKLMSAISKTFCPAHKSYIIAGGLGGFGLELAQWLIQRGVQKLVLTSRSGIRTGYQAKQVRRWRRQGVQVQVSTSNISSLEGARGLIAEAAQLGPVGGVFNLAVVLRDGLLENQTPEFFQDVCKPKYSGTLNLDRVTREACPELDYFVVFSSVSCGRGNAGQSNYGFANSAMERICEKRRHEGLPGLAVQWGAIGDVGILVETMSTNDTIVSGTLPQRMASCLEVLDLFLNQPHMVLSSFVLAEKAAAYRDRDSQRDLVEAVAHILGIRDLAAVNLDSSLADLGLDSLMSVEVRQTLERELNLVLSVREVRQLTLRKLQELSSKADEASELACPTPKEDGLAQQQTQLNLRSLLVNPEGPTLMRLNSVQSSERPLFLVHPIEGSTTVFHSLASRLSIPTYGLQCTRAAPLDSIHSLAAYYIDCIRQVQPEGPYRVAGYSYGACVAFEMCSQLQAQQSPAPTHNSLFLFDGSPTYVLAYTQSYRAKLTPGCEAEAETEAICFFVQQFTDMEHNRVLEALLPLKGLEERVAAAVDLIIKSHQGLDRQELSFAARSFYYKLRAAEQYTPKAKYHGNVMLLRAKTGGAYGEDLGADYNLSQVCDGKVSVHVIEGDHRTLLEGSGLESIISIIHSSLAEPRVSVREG
FAD-linked sulfhydryl oxidase ALR, sequence (P55789 whole entry): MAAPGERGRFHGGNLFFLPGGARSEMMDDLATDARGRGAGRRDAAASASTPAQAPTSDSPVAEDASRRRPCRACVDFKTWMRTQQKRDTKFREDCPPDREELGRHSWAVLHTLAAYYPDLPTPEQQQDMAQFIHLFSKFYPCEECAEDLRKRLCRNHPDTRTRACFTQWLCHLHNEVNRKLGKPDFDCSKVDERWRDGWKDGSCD
Luciferin 4-monooxygenase, sequence (P08659 whole entry): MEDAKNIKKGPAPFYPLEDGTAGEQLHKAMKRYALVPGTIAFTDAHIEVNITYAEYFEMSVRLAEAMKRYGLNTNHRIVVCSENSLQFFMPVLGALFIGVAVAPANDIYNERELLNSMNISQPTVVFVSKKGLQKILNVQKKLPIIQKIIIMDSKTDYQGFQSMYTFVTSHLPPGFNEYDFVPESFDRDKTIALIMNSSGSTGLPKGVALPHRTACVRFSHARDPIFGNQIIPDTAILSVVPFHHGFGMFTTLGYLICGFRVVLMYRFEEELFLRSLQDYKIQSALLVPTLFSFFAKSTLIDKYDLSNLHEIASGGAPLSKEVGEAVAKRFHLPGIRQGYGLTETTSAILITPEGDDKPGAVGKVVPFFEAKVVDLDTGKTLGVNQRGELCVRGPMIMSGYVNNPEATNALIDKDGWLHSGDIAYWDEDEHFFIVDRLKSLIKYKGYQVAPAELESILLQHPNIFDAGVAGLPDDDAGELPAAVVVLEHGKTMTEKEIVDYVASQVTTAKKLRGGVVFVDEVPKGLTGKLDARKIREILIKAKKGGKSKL

O=[N+]([O-])c1ccc(N=Nc2c(Cl)cc(O)cc2Cl)cc1
EC50 [1]: 4.74 µM (active)
AC50 (INS1): 1.73 µM (active)
EC50 (BJ [2]): 5.98 µM (active)
EC50 [3]: 1.98 µM (active)
EC50 [4]: 0.137 µM (active)
EC50 (BJ [5]): 5.78 µM (active)
EC50 (BJ [6]): 4.44 µM (active)
AC50 [7]: 0.574 µM (active)

Cc1cccc(COC[C@H](CC(C)C)N2CCN(C(=O)c3ccc(C(C)(C)C)cc3)CCC2=O)c1
IC50 (Fatty acid synthase [8]): 7.65 µM (active)
IC50 (Fatty acid synthase [9]): 7.54 µM (active)

COc1ccccc1C(=O)Nc1ccnn1C1CCN(C(C)CSC)CC1 (stereo unspecified)
EC50 [10]: > 300 µM (not active)
EC50 [11]: > 300 µM (inconclusive)

O=C(COC(=O)c1cc([N+](=O)[O-])ccc1N1CCOCC1)Nc1cc(F)ccc1F
IC50 (Fatty acid synthase [8]): 2.25 µM (active)
IC50 (Fatty acid synthase [9]): 1.57 µM (active)

O=C1Nc2ccccc2/C1=C1\SC(=S)N(Cc2ccccc2Cl)C1=O
EC50 [1]: 23 µM (active)
EC50 (BJ [2]): 10.8 µM (inconclusive)
EC50 (BJ [5]): > 75 µM (inconclusive)
EC50 (BJ [6]): > 150 µM (not active)

CCC1=Nc2cc(C(=O)NCCN3CCOCC3)ccc2Sc2ccccc21
EC50 [1]: > 150 µM (not active)
EC50 (BJ [2]): > 150 µM (not active)
EC50 (BJ [5]): > 150 µM (not active)
EC50 (BJ [6]): > 150 µM (not active)

Cc1ccc(NC(=O)Cn2c(=O)c(C)nc3ccccc32)cc1
EC50 [10]: > 300 µM (not active)
EC50 [11]: > 300 µM (not active)

COc1ccc(CNCc2cccc(OC)c2OC)cc1Br
IC50 [12]: 149 µM (active)

CN(C)c1ccc(NS(=O)(=O)c2cc(Cl)ccc2Cl)cc1
IC50 [12]: 57.7 µM (active)
EC50 [13]: > 195 µM (not active)

CN1CCCCC/C1=N\c1ccccc1C#N
IC50 [12]: 113 µM (active)

C[C@@]12C(=O)Nc3ccccc3C(=O)N1[C@H]1c3cc(Br)ccc3OC[C@@H]1[C@@H]2c1ccccc1
IC50 (Fatty acid synthase [8]): 16.2 µM (active)
IC50 (Fatty acid synthase [9]): 11.8 µM (active)

CCN(C(=O)CSc1ncnc2c1cnn2-c1ccccc1)C1CCS(=O)(=O)C1 (stereo unspecified)
IC50 (Fatty acid synthase [8]): 5.88 µM (active)
IC50 (Fatty acid synthase [9]): 4.94 µM (active)

Cc1cnc(C(=O)Oc2ccc(-c3ccccc3)cc2)cn1
IC50 [12]: 12.5 µM (active)

S=C(Nc1ccccc1)Nc1ccc(OCc2ccc(Cl)cc2Cl)cc1
AC50 [14]: 0.406 µM (active)
AC50 [15]: 0.405 µM (active)

Cc1csc(NC(=O)C2CCN(S(=O)(=O)c3ccc4c(c3)oc(=O)n4C)CC2)n1
IC50 (Fatty acid synthase [8]): 8.65 µM (active)
IC50 (Fatty acid synthase [9]): 6.81 µM (active)

COc1cccc(C(=O)Nc2cccc(-c3nnc(-c4ccco4)o3)c2)c1
IC50 [16]: > 50 µM (not active)
IC50 (H9c2): 28.2 µM (active)

COc1ccc(-n2c(SCc3ccc([N+](=O)[O-])cc3)nnc2-c2ccccc2)cc1
IC50 (Fatty acid synthase [8]): 5.24 µM (active)
IC50 (Fatty acid synthase [9]): 3.44 µM (active)

CC/N=C1\S/C(=C\c2ccc(O)c(OCC)c2)C(=O)N1CC
IC50 [12]: 37.9 µM (active)

C/C(=N\NC(=O)CC1N=C(Cc2ccccc2)NNC1=O)c1ccc(C)cc1 (stereo unspecified)
EC50 [1]: 44.3 µM (active)
EC50 (BJ [2]): > 150 µM (not active)
EC50 (BJ [5]): > 150 µM (inconclusive)
EC50 (BJ [6]): > 150 µM (not active)
EC50 [17]: > 260 µM (inactive)

CC1CCc2nn(CC(=O)NCCN3CCCCC3C)cc2C1 (stereo unspecified)
EC50 [10]: > 300 µM (not active)
EC50 [11]: > 300 µM (not active)

COc1ccc(NC2CCCN(C(=O)CCc3cn[nH]c3)C2)cc1 (stereo unspecified)
IC50 [12]: 108 µM (active)
AC50 [18]: 2.19 µM (active)

O=C(c1ccccc1)c1coc2ccc(O)c(Cl)c12
IC50 [12]: 75.4 µM (active)

C[C@@](O)(/C=C/[C@H]1CC=CC(=O)O1)[C@@H](C[C@@H](O)\C=C/C=C\C=C\CO)OP(=O)(O)O [FOSTRIECIN SODIUM]
GI50 (SN12K1): 3.72 µM (inactive)

Cc1ccc(-n2c(=O)c(C#N)cc3c(=O)n4ccccc4nc32)cc1C
EC50 [10]: > 300 µM (not active)
EC50 [11]: 55.8 µM (active)

O=C(CCC1CCCC1)N1CCN(C2CCCC2)CC1
IC50 [12]: 209 µM (active)

Reference: ChEMBL document CHEMBL1201862, “PubChem BioAssay data set” (2004)
